Source: US12516293B2, “Reagents and methods with Wnt agonists and bioactive lipids for generating and expanding cardiomyocytes” (The Board of Trustees of the Leland Stanford Junior …, priority 2018, dated 2026)

Key:
Format in all cases: cell-based, human
[1] = tested on: AKT1/2/3 and other kinases; assay: Phospho-kinase array and western blot in CHIR-treated hiPSC-CMs
Experimental: Kinase phosphorylation levels were screened with a Proteome Profiler Human Phospho-Kinase Array Kit (R&D Systems) containing 43 human kinases and total amounts of 2 proteins. Validation was performed with regular western blotting. Total protein expression was measured with a gel imager (Biorad) and processed with pixel intensity software (Biorad).

[2] = tested on: hiPSC-CMs; assay: hiPSC-CM expansion upon serial passaging
[3] = tested on: hiPSC-CMs; assay: Sarcomere alignment and contractility on micropatterns
Experimental: Cells were plated on soft substrates with micropatterned proteins on top. After 3-6 days of culture high resolution movies (Sony Microscopy) were recorded for at least 10 individual cells per group and motion velocity analysis was processed digitally. After recordings, cells were fixed and used for immunohistochemistry and confocal imaging. Sarcomere alignment was quantified with Image J software. CM maturation is accompanied by the formation of highly structured sarcomere, bi- or multinucleation, and cell cycle exit (Bassat et al., 2017; Bersell et al., 2009; Senyo et al., 2014; Uygur and Lee, 2016). […] To address this, age-matched hiPSC-CMs exposed to media containing DMSO (CTR) were compared to ones that have undergone 3 passages in media containing 2.0 μM CHIR using various phenotypic assays of CM function. To assess sarcomere alignment, CHIR and CTR hiPSC-CMs on 7:1 aspect ratio micropatterns (Ribeiro et al., 2015) were cultured and immunostained with TnT and sarcomeric actinin antibodies.

[4] = tested on: hiPSC-CMs; assay: Real-time PCR / immunostaining of cardiac gene expression in hiPSC-CMs; details: CHIR treatment, qPCR
Experimental: For quantitative analysis of gene expression, RNA was extracted with a lysis buffer (Qiagen) from hiPSC-CMs and stored at −80° C. Total RNA from each sample was purified from cell lysate using a RNA purification kit (Qiagen). cDNA was made using iScript cDNA synthesis kit (BioRad). Quantitative PCR was performed using a 96-well thermocycler system (Biorad) with SYBR Green substrate (Affymetrix) for 40 cycles. All primers sequences were obtained from the PrimerBank (Massachusetts General Hospital/Harvard Medical School) online database. […] Day 12 hiPSC-CMs were cultured in CHIR continuously for 2 months with serial passaging followed by CHIR withdrawal for an additional month.

[5] = tested on: TCF/LEF; assay: TOPFlash TCF/LEF luciferase reporter in day 12 hiPSC-CMs; details: P0 hiPSC-CMs, 24 hours
Experimental: Day 12 hiPSC-CMs were transfected for 48h with a TCF reporter plasmid (TOPflash M50, Addgene) or the mutant reporter plasmid (TOPflash M51, Addgene) and the use of Lipofectamine 3000 (Invitrogen). 72h after transfection cells were treated with various small molecules for 24h. Cells were lysed and mixed with luciferase substrate (Promega) and the firefly luciferase expression was measured with a 96-well micro plate reader (Fisher).

[6] = tested on: hiPSC-CMs; assay: ki67/pHH3 proliferation and binucleation of hiPSC-CMs (immunofluorescence)
Experimental: Immunohistochemistry was performed with the incubation of primary antibodies overnight followed by 2 hours of incubation with various Alexa fluorescence conjugated secondary antibodies. Images were made with confocal (Zeiss LSM 710) or regular immunofluorescence microscopy (Leica DM IL LED). Primaries used in this study were cardiac troponin T (MS-295, Fisher), Ki67 (ab15580, Abcam), pHH3 (#9701, Cell Signaling), aurora B (ab2254, Abcam), alpha sarcomeric actinin ([…], Sigma-Aldrich), MLC2V (ab48003, Abcam), phospo AKT […] (#9275, Cell Signaling). […] To examine this, the percentage was determined of troponin T (TnT) positive hiPSC-CMs that express the cell cycle marker ki67 or the mitosis marker phospho-histone H3 (pHH3) at each passage after treatment with CHIR or DMSO (CTR) (FIG. 2A-C). […] The short-term (24 hrs) changes were assessed in proliferation rate of day 12 hiPSC-CMs (P0) after treatment with CHIR-, CTR-, or C59, a specific inhibitor of Wnt signaling (FIG. 2I-J).

[7] = tested on: TCF/LEF; assay: TOPFlash TCF/LEF luciferase reporter in day 30 hiPSC-CMs; details: day 30 cardiomyocytes, 2-hour treatment
Experimental: […] and day 30 hiPSC-CMs were replated in 96-well plates and cultured for 2-3 days before transfection with Lipofectamine (Invitrogen) and TOPFlash (TCF/LEF) luciferase Wnt signaling reporter plasmid (M50, Addgene) at 100 ng/well. After 48 hours, media was changed, and cells were subjected to different treatments for 2 hours before lysis and luciferase (Promega) luminescence was measured with a standard luminescence plate reader. To determine the mechanism through which S1P/LPA regulate cell cycle activity in hiPSC-CMs, it was evaluated whether S1P and LPA treatment can directly stimulate Wnt/β-catenin signaling in day 30 cardiomyocytes using the TOPFlash (TCF/LEF-luciferase) reporter.

[8] = tested on: hiPSC-CMs; assay: Motion-derived contractility of day 30 hiPSC-CMs; details: day 30 hiPSC-CMs vs control
Excerpt: These studies illustrate an additional role for S1P/LPA to regulate cell cycle activity in well-differentiated hiPSC-CMs and synergize with β-catenin signaling to increase hiPSC-CM proliferation.

[9] = tested on: TCF/LEF; assay: TOPFlash TCF/LEF luciferase reporter in hiPSCs; details: treatment alone, 2 hours
Experimental: and day 30 hiPSC-CMs were replated in 96-well plates and cultured for 2-3 days before transfection with Lipofectamine (Invitrogen) and TOPFlash (TCF/LEF) luciferase Wnt signaling reporter plasmid (M50, Addgene) at 100 ng/well. After 48 hours, media was changed, and cells were subjected to different treatments for 2 hours before lysis and luciferase (Promega) luminescence was measured with a standard luminescence plate reader. […] It was studied whether S1P/LPA treatment of undifferentiated hiPS cells, either alone or in combination with CHIR, could increase the level of nuclear β-catenin. […] To examine whether the increase in nuclear β-catenin level results in an activation of Wnt signaling at the transcriptional level, hiPSCs were transfected with the previously described TOPFlash luciferase reporter plasmid^23 ([…] et al. 2003). This system provides a proportionate visualization of Wnt transcriptional activity using bioluminescence. Subsequently, the cells were treated with dimethyl sulfoxide (DMSO), CHIR, S1P/LPA, or a combination of S1P/LPA and CHIR. […] When S1P/LPA was combined with CHIR, the TCF/LEF-luciferase activity was further increased to more than 60-fold compared with DMSO control (FIG. 16C).

## Cc1c[nH]c(-c2cnc(NCCNc3ccc(C#N)cn3)nc2-c2ccc(Cl)cc2Cl)n1 [CHIR99021]
[1]; CHIR
  phosphorylation of HSP27 and p70S6K: increased phosphorylation
  phosphorylation of growth suppressor P27: subtle increase
[1]; screen of 43 kinases, CHIR
  AKT1/2/3 phosphorylation at T308: significant upregulation
[1]; western blot, CHIR vs DMSO
  active form of AKT (pAKT T308): rapidly increased
[2]; 2.0 μM CHIR from day 12, serial passaging
  increase in the total cell number: greater than 100 fold
[2]; 2.0 μM CHIR from day 12, serial passaging, TnT+ cells vs DMSO
  increase in CM number: greater than 100 fold
[2]; 2.0 μM CHIR, Caspase 3 staining
  cell death: without notable cell death
[2]; 2.0 μM CHIR, DMSO cells cease to proliferate after first passage
  number of passages possible: up to 5 times
[2]; CHIR treatment with serial passaging
  hiPSC-CMs generated from 2 million day 12 hiPSC-CMs: 300-900 million
[2]; CHIR-treated early passage hiPSC-CMs
  time to confluence after passaging: 5 to 7 days
[2]; expansion of beating hiPSC-CMs
  TnT purity during expansion: > 95%
[2]; flow cytometry, vs DMSO which decreased
  CM purity with each passage (TnT+): maintain, if not slightly enrich
[3]; 3 passages in 2.0 μM CHIR vs age-matched CTR
  sarcomere alignment and organization: markedly reduced alignment and organization of sarcomeres
[3]; CHIR-treated vs CTR cells
  contractile force generation: decreased force generation
[4]
  Wnt signaling target gene expression (Axin2, LEF, CCND2): induction of Wnt signaling target gene expression
  markers of hiPSC-CM maturation (MYL2, MYH7, MYOM1): down-regulated
[5]
  TCF/LEF activity (TOPFlash): dramatic increase in TCF/LEF activity
[6]; CHIR vs CTR at each passage
  extension of window of proliferation (ki67, pHH3): up to 5 passages
[6]; compared with CTR or C59 treated cells
  binucleation: less binucleation
[6]; day 12 hiPSC-CMs (P0), 24 hrs treatment
  ki67 expression / proliferation rate: significant difference in ki67 expression
[7]
  TCF/LEF-luciferase activity (TOPFlash): activated
[8]
  beating frequency or contractile force generation: no significant difference
[9]
  TCF/LEF-luciferase activity, increase vs DMSO control: ~40 fold
